What was measured:
Mu-type opioid receptor = Mu-type opioid receptor (Bos taurus, UniProt P79350)
Opioid receptor delta 1 = Opioid receptor delta 1 (Bos taurus, UniProt F1N083)
Chain of Opioid receptor delta 1 (F1N083 whole entry): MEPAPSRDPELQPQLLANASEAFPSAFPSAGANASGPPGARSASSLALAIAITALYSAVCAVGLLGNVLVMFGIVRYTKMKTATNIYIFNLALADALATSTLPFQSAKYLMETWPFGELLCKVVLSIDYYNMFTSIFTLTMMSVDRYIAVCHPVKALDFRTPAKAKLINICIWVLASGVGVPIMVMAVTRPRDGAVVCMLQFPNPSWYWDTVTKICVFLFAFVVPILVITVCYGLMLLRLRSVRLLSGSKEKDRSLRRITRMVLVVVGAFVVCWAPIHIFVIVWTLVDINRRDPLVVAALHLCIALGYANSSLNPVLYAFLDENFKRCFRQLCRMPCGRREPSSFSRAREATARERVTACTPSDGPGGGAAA

Chain of Mu-type opioid receptor (P79350 whole entry): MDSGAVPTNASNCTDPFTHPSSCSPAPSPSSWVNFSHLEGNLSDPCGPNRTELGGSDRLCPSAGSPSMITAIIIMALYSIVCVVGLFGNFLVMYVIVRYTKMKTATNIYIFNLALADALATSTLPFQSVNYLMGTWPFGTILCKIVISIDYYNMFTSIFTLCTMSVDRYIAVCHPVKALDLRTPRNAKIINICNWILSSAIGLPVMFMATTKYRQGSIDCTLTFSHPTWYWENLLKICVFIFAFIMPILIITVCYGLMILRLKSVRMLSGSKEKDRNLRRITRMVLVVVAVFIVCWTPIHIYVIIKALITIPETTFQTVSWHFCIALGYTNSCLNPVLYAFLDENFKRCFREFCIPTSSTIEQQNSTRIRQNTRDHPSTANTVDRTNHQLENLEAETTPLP

Row | SMILES | Ki (Mu-type opioid receptor) | Ki (Opioid receptor delta 1)
1 | COc1ccc2c3c1O[C@H]1C(=O)CCC4(NC(=O)/C=C\c5ccc(Cl)cc5)C(C2)N(CC2CC2)CCC314 (stereo partly specified) [MC-CAM] | 1.4 nM | 12 nM
2 | COc1ccc2c3c1O[C@H]1C(=O)CCC4(NC(=O)/C=C\c5ccc([N+](=O)[O-])cc5)C(C2)N(CC2CC2)CCC314 (stereo partly specified) [N-CPM-CACO] | – | 16 nM
3 | COc1ccc2c3c1O[C@H]1C(=O)CCC4(NC(=O)/C=C\c5ccc([N+](=O)[O-])cc5)C(C2)N(C)CCC314 (stereo partly specified) [CACO] | 0.46 nM | –
4 | COc1ccc2c3c1O[C@H]1C(=O)CCC4(NC(=O)/C=C\c5ccc(Cl)cc5)C(C2)N(C)CCC314 (stereo partly specified) [CAM] | 0.12 nM | 0.75 nM
